Source: patent US6797819B1, “Alkaloids” (President and Fellows of Harvard College, priority 1998, dated 2004)
Entries after “also recorded” stand apart in the source; their conditions may differ.

System: VSVG-GFP trafficking in BSC1 cells
Format: cell-based, monkey

| Structure (SMILES) | ability to block protein trafficking from the golgi apparatus to the plasma membrane | inhibition of VSVG-GFP movement from the golgi apparatus to the plasma membrane | inhibition of the movement of a specific cellular protein from the golgi apparatus to the plasma membrane | effect on the secretory pathway |
| --- | --- | --- | --- | --- |
| COc1ccc(CS[C@@H]2CC(=NOCc3ccccc3)C[C@H]3Oc4c(Br)c(OCC5CC5)cc5c4[C@]32C[C@@H](CO)NC5)cc1 [secramine] | block protein trafficking from the golgi apparatus to the plasma membrane | potent inhibitor of VSVG-GFP movement from the golgi apparatus to the plasma membrane; also recorded: Golgi to PM Blocker | potent inhibitor of the movement of a specific cellular protein from the golgi apparatus to the plasma membrane | – |
| COc1ccc2c3c1O[C@H]1C[C@@H](O)C=C[C@@]31CCN(C)C2 [galanthamine, reference compound] | – | – | – | no observable effect on the secretory pathway |
